Blank lines part the entries; values can stand above or below the compound they belong to.
Tests used:
RAW264.7 [1] = assay: Anti-inflammatory activity in mouse RAW264.7 cells assessed as inhibition of LPS-induced NO production pretreated with compounds followed by LPS stimulation incubated for 24 hrs by Griess assay; type: functional, cell-based
RAW264.7 [2] = assay: Growth inhibition of mouse RAW264.7 cells relative to control; type: cell-based
[3] = molecular target: Xanthine dehydrogenase/oxidase (Homo sapiens, UniProt P47989); assay: Inhibition of xanthine oxidase (unknown origin) at 10 uM using xanthine as substrate incubated for 15 mins relative to control; conditions: 0.25 h
Xanthine dehydrogenase/oxidase, sequence (P47989 whole entry): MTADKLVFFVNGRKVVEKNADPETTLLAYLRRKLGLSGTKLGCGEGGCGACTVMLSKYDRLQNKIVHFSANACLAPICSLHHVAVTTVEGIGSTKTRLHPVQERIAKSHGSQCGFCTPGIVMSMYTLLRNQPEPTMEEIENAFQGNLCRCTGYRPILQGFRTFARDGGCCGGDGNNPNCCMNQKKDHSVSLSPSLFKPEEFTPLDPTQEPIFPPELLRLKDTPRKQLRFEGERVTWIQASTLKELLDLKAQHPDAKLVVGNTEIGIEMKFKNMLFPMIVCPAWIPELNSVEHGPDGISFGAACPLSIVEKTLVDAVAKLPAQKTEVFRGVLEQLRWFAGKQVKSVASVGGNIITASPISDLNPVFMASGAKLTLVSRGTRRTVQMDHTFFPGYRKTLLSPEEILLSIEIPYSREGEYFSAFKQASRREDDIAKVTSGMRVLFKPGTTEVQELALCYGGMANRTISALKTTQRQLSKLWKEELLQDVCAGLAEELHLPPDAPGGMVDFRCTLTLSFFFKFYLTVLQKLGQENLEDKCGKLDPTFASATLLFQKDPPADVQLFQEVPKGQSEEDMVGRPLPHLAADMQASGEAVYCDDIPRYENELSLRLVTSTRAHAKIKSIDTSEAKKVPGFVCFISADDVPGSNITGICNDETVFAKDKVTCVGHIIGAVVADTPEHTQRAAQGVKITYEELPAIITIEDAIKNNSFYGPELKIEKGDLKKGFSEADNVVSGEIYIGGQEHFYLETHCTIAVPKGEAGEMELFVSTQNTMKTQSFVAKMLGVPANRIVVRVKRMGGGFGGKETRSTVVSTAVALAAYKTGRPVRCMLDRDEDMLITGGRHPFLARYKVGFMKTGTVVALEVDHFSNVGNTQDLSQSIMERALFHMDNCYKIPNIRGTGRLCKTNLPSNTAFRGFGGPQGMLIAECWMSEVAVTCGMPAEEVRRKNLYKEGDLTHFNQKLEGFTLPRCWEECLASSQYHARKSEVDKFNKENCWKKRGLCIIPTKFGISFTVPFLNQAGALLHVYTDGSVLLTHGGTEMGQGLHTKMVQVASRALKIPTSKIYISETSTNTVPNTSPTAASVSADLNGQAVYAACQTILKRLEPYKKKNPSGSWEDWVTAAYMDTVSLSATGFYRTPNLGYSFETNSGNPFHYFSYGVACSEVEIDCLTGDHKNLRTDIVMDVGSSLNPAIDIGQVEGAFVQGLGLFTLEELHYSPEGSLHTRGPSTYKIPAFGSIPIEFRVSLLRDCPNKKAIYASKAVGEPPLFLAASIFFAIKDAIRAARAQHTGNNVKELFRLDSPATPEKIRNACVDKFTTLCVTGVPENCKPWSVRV

[4] = molecular target: T1, Tyrosine-protein phosphatase non-receptor type 1 (Homo sapiens) (UniProt P18031); assay: Inhibition of recombinant human PTP1B expressed in Escherichia coli BL21 at 10 uM using […] as substrate […] for 5 mins followed by substrate addition measured after 10 mins relative to control
T1 sequence (whole entry): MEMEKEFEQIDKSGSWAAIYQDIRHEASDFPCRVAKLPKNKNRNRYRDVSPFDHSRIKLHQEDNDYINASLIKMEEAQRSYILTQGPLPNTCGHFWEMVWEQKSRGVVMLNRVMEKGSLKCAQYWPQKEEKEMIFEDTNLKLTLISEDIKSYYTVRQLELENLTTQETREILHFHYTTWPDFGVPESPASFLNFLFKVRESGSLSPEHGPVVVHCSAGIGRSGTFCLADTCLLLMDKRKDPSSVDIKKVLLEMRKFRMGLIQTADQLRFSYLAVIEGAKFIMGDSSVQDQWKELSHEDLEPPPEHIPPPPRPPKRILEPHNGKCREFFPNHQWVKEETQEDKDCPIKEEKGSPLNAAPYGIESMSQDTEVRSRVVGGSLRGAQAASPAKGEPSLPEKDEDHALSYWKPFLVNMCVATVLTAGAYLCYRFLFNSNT

Compound: CCCCCC[C@H](O)[C@@H]1/C(C(=O)O)=C(/C(=O)O)C[C@H]([C@@H](O)[C@H]2CC=CC(=O)O2)CC2=C(C(=O)OC2=O)[C@H]1O
IC50 (RAW264.7 [1]): 1900 nM
growth inhibition (GI) (RAW264.7 [2]): -14.5%

Compound: CCCCCC[C@H](O)[C@@H]1/C(C(=O)O)=C(/C(=O)O)C[C@H]([C@@H](O)[C@H](O)CCCC)CC2=C(C(=O)OC2=O)[C@H]1O
inhibition at 10 µM [3]: 67%

inhibition [4]: 76%
Compound: CCCCCCC[C@@H](CC1=C(/C=C/CCC/C=C\CO)C(=O)OC1=O)C1=C(C)C(=O)OC1=O

Reference: ChEMBL document CHEMBL4334520, “Nonadride and Spirocyclic Anhydride Derivatives from the Plant Endophytic Fungus Talaromyces purpurogenus” (J Nat Prod, 2019)
